What was measured:
Format in all cases: biochemical
Pim-2 = Pim-2 (Homo sapiens (Human), UniProt Q9P1W9); assay: Pim-2 kinase assay (TR-FRET, Fluorescein-labeled CREBtide peptide substrate); conditions: 1 mM ATP; read-out: Pim2 IC50
In short: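 Human Pim-2 (1 nM) phosphorylated 0.05 μM fluorescein-CREBtide with 1 mM ATP for 2 h at 25 °C in Tris buffer pH 7.5 containing MgCl2, DTT, BSA and Tween-20. Reactions were stopped with EDTA and Tb-anti-pSer133 antibody was added, and TR-FRET was read after 30 min.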

Pim-1 = Pim-1 (Homo sapiens (Human), UniProt P11309); assay: Pim-1 kinase assay (AlphaScreen, Biotin-labeled BAD peptide substrate); conditions: 1 mM ATP; read-out: Pim1 IC50
In short: (§1)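 Kinase reactions ran 1 h at 25° C, pH 7.5, with 0.05 μM biotin-BAD peptide, 1 mM ATP, and 2.5 μM Pim-1 or 1.25 μM Pim-3. EDTA stop buffer carried anti-phospho-Bad (Ser112) antibody plus streptavidin donor and Protein-A acceptor beads. AlphaScreen signal was read after 1 h in the dark.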

Pim-3 = Pim-3 (Homo sapiens (Human), UniProt Q86V86); assay: Pim-3 kinase assay (AlphaScreen, Biotin-labeled BAD peptide substrate); conditions: 1 mM ATP; read-out: Pim3 IC50
In short: as §1

Sequence of Pim-1 (P11309 whole entry): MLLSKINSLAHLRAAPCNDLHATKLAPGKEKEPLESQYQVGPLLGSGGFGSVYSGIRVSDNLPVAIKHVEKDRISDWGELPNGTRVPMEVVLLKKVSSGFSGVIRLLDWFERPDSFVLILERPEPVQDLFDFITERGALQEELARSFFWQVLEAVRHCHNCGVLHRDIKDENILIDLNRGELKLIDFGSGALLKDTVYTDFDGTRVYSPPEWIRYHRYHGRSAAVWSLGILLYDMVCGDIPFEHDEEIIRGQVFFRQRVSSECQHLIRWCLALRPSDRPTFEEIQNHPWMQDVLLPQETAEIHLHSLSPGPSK
Sequence of Pim-2 (Q9P1W9 whole entry): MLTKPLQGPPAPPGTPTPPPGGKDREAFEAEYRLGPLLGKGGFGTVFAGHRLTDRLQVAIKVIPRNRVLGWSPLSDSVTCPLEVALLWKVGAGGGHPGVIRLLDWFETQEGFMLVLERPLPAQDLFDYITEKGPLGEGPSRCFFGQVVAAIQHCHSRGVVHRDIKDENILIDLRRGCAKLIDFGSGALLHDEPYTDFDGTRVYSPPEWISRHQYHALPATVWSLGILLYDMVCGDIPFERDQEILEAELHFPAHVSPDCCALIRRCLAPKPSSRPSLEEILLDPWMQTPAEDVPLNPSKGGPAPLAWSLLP

SMILES | IC50 (Pim-2) [µM] | IC50 (Pim-1) [µM] | IC50 (Pim-3) [µM]
C[C@H]1CN(c2ccncc2NC(=O)c2ccc3occ(C4CCOCC4)c3n2)C[C@@H](N)[C@@H]1O [Example 17, N-(4-((3R,4R,5S)-3-Amino-4-hydroxy-5-methylpiperidin-1-yl)pyridin-3-yl)-3-(tetrahydro-2H-pyran-4-yl)furo[3,2-b]pyridine-5-carboxamide] | 0.1 to 1 | ≤ 0.01 | ≤ 0.01
C[C@H]1CN(c2ccncc2NC(=O)c2ccc3occ(C4CC4)c3n2)C[C@@H](N)[C@@H]1O [Example 34, N-(4-((3R,4R,5S)-3-Amino-4-hydroxy-5-methylpiperidin-1-yl)pyridin-3-yl)-3-cyclopropylfuro[3,2-b]pyridine-5-carboxamide] | ≤ 0.1 | ≤ 0.01 | ≤ 0.01
C[C@@H]1C[C@H](N)CN(c2ccncc2NC(=O)c2ccc3sc(-c4ccccc4F)cc3n2)C1 [Example 53, N-(4-((3S,5R)-3-Amino-5-methylpiperidin-1-yl)pyridin-3-yl)-2-(2-fluorophenyl)thieno[3,2-b]pyridine-5-carboxamide] | 0.1 to 1 | ≤ 0.01 | ≤ 0.01
C[C@@H]1C[C@H](N)CN(c2ccncc2NC(=O)c2ccc3sc(C4CC4)nc3n2)C1 [Example 80, N-(4-((3S,5R)-3-Amino-5-methylpiperidin-1-yl)pyridin-3-yl)-2-cyclopropylthiazolo[4,5-b]pyridine-5-carboxamide] | 0.1 to 1 | ≤ 0.01 | ≤ 0.01
CCc1coc2ccc(C(=O)Nc3cnccc3N3C[C@H](C)C[C@H](N)C3)nc12 [Example 20, N-(4-((3S,5R)-3-Amino-5-methylpiperidin-1-yl)pyridin-3-yl)-3-ethylfuro[3,2-b]pyridine-5-carboxamide] | ≤ 0.1 | ≤ 0.01 | ≤ 0.01
CC(C)c1csc2ccc(C(=O)Nc3cnccc3N3C[C@H](C)C[C@H](N)C3)nc12 [Example 62, N-(4-((3S,5R)-3-Amino-5-methylpiperidin-1-yl)pyridin-3-yl)-3-isopropylthieno[3,2-b]pyridine-5-carboxamide] | ≤ 0.1 | ≤ 0.01 | ≤ 0.01
C[C@H]1CN(c2ccncc2NC(=O)c2ccc3cc(C4CC4)oc3n2)C[C@@H](N)[C@@H]1O [Example 69, N-{4-[(3R,4R,5S)-3-Amino-4-hydroxy-5-methylpiperidin-1-yl]pyridin-3-yl}-2-cyclopropylfuro[2,3-b]pyridine-6-carboxamide] | ≤ 0.1 | ≤ 0.01 | ≤ 0.01
COc1cc(F)c(-c2cc3nc(C(=O)Nc4cnccc4N4C[C@H](C)C[C@H](N)C4)ccc3s2)c(F)c1 [Example 57, N-(4-((3S,5R)-3-Amino-5-methylpiperidin-1-yl)pyridin-3-yl)-2-(2,6-difluoro-4-methoxyphenyl)thieno[3,2-b]pyridine-5-carboxamide] | 0.1 to 1 | ≤ 0.01 | ≤ 0.01
COc1ccc(-c2cc3nc(C(=O)Nc4cnccc4N4C[C@@H](N)[C@H](O)[C@@H](C)C4)ccc3s2)cn1 [Example 43, N-(4-((3R,4R,5S)-3-Amino-4-hydroxy-5-methylpiperidin-1-yl)pyridin-3-yl)-2-(6-methoxypyridin-3-yl)thieno[3,2-b]pyridine-5-carboxamide] | 0.1 to 1 | ≤ 0.01 | ≤ 0.01
C[C@@H]1C[C@H](N)CN(c2ccncc2NC(=O)c2ccc3occ(-c4ccccc4F)c3n2)C1 [Example 21, N-(4-((3S,5R)-3-Amino-5-methylpiperidin-1-yl)pyridin-3-yl)-3-(2-fluorophenyl)furo[3,2-b]pyridine-5-carboxamide] | ≤ 0.1 | ≤ 0.01 | ≤ 0.01
CCCc1cc2nc(C(=O)Nc3cnccc3N3C[C@H](C)C[C@H](N)C3)ccc2s1 [Example 50, N-(4-((3S,5R)-3-Amino-5-methylpiperidin-1-yl)pyridin-3-yl)-2-propylthieno[3,2-b]pyridine-5-carboxamide] | ≤ 0.1 | ≤ 0.01 | ≤ 0.01
C[C@H]1CN(c2ccncc2NC(=O)c2ccc3occ(-c4c(F)cccc4F)c3n2)C[C@@H](N)[C@@H]1O [Example 11, N-(4-((3R,4R,5S)-3-Amino-4-hydroxy-5-methylpiperidin-1-yl)pyridin-3-yl)-3-(2,6-difluorophenyl)furo[3,2-b]pyridine-5-carboxamide] | ≤ 0.1 | ≤ 0.01 | ≤ 0.01
COc1ccc(F)c(-c2csc3ccc(C(=O)Nc4cnccc4N4C[C@H](C)C[C@H](N)C4)nc23)c1F [Example 64, N-(4-((3S,5R)-3-Amino-5-methylpiperidin-1-yl)pyridin-3-yl)-3-(2,6-difluoro-3-methoxyphenyl)thieno[3,2-b]pyridine-5-carboxamide] | 0.1 to 1 | ≤ 0.01 | 0.01 to 0.05
C[C@H]1CN(c2ccncc2NC(=O)c2ccc3occ(C4CCN(C)CC4)c3n2)C[C@@H](N)[C@@H]1O [Example 16, N-(4-((3R,4R,5S)-3-Amino-4-hydroxy-5-methylpiperidin-1-yl)pyridin-3-yl)-3-(1-methylpiperidin-4-yl)furo[3,2-b]pyridine-5-carboxamide] | > 2 | 0.01 to 0.05 | > 0.04
C[C@H]1CN(c2ccncc2NC(=O)c2ccc3sc(-c4ccccc4)cc3n2)C[C@@H](N)[C@@H]1O [Example 46, N-(4-((3R,4R,5S)-3-Amino-4-hydroxy-5-methylpiperidin-1-yl)pyridin-3-yl)-2-phenylthieno[3,2-b]pyridine-5-carboxamide] | 0.1 to 1 | ≤ 0.01 | ≤ 0.01
C[C@@H]1C[C@H](N)CN(c2ccncc2NC(=O)c2ccc3sc(-c4cnn(C)c4)cc3n2)C1 [Example 60, N-(4-((3S,5R)-3-Amino-5-methylpiperidin-1-yl)pyridin-3-yl)-2-(1-methyl-1H-pyrazol-4-yl)thieno[3,2-b]pyridine-5-carboxamide] | ≤ 0.1 | ≤ 0.01 | ≤ 0.01
C[C@@H]1C[C@H](N)CN(c2ccncc2NC(=O)c2ccc3sc(-c4ccccc4)cc3n2)C1 [Example 58, N-(4-((3S,5R)-3-Amino-5-methylpiperidin-1-yl)pyridin-3-yl)-2-phenylthieno[3,2-b]pyridine-5-carboxamide] | 0.1 to 1 | ≤ 0.01 | ≤ 0.01
